pIC50: −log10 of the molar value.
Tests used:
[1] = Antioxidant potential, ABTS assay; conditions: compared to compound free blank
Experimental: (§1) To evaluate the potential of allyl HTT and 4-MSOB HTT to act as antioxidants, ABTS and DPPH were used as model radicals and Trolox as reference antioxidants based on Shalaby and Shanab ([28]). In total, 1.5 mg of ABTS and 0.26 mg potassium peroxodisulfate were dissolved in 4 mL of pure water and incubated in the dark overnight at room temperature. Afterward, 36 mL of MeOH were added to obtain the fresh ABTS working solution. In the case of the DPPH assay, 1.1 mg of DPPH were dissolved in 4 mL of MeOH and incubated for 2 h in the dark at 4°C, followed by the addition of 36 mL of MeOH to obtain the fresh DPPH working solution. Standards of Trolox, allyl HTT, and 4-MSOB HTT were prepared in water/MeOH (90/10, v/v%) at concentrations in the range of 6.25–100 μM. To detect the antioxidant potential, 100 μL of standard or water/MeOH (90/10, v/v%) as control were added to 1,000 μL of ABTS or DPPH working solution, and the extinction was measured directly after mixing and after 6 min of incubation in the dark with a spectrometer (UviLine 9100, Schott Instruments, Mainz, Germany) at 734 nm in the case of ABTS assay and 515 nm in DPPH assay (each prepared as duplicate). The results are reported as mean ± SD of the reduction of the extinction compared to the control.

[2] = Antioxidant potential, DPPH assay; conditions: compared to compound free blank
Experimental: as §1

GSK-3β = tested on: GSK-3β; design: method as in PMID 31553649; conditions: read-out: IC50 (50% inhibition) to inhibit GSK-3β; cited from earlier work
GSK-3α = tested on: GSK-3α; design: method as in PMID 31553649; conditions: read-out: IC50 (50% inhibition) to inhibit isoform GSK-3α; cited from earlier work
[3] = design: method as in doi:10.1002/14356007.a09_001; conditions: cited from earlier work
HepG2 = tested on: HepG2; design: method as in PMID 14578469; conditions: HepG2, 72 h of incubation time; read-out: IC50 (50% inhibition of cell growth); cited from earlier work
[4] = design: method as in PMID 8000299, PMID 9865427; conditions: 10–12 h urine after consumption of horseradish or a mustard paste; cited from earlier work
[5] = tested on: NAD(P)H dehydrogenase quinone 1 (NQO1); assay: NQO1 activity in HCT116 pTRAF cells; format: cell-based; conditions: 2 μM, 24 h, negative control 51 ± 5
Experimental: (§2) The effect of allyl HTT or 4-MSOB HTT on NAD(P)H dehydrogenase quinone 1 (NQO1) activity was tested for HepG2 cells and HCT116 pTRAF cells. HCT116 pTRAF is a cell line that was transfected with the pTRAF^Nrf2/HIF/NFκB [Johansson et al. ([29])], as described by Kipp et al. ([30]). HCT116 pTRAF cells were cultivated in McCoy's 5A medium + 1% penicillin/streptomycin + 10% FBS + 1% GlutaMAX + 0.2 mg/mL hygromycin B. HepG2 cells in RPMI medium were seeded in a 6-well-plate (sterile, Sarsted, Nümbrecht, Germany) with a density of 350,000 cells/well, and HCT116 pTRAF cells in culture medium without hygromycin B with a density of 100,000 cells/well. After 48 h of incubation under cell culture conditions, the medium was exchanged with the fresh medium as a negative control and a medium with concentrations of 1 μM and 100 μM of allyl HTT or 4-MSOB HTT. Medium containing 2 μM auranofin was used as a positive control. After 24 h of incubation under cell culture conditions, NQO1 activity was analyzed according to Müller et al. ([31]), and the results were reported as mean ± SD. Additionally, the t-test for independent samples per variable was performed to test if concentration-dependent differences exist.

[6] = tested on: NAD(P)H dehydrogenase quinone 1 (NQO1); assay: NQO1 activity in HepG2 cells; format: cell-based, human; conditions: 2 μM, 24 h, negative control 145 ± 8
Experimental: as §2

[7] = tested on: Nrf2 target gene expression in alveolar macrophages and bronchial epithelial cells; conditions: intervention with 150 μM; cited from earlier work
[8] = tested on: cultured hepatocytes from human liver transplants; conditions: range of 10 μM and 50 μM; cited from earlier work
endothelial cells = conditions: cited from earlier work
[9] = cited from earlier work

Cc1c(C)c2c(c(C)c1O)CCC(C)(C(=O)O)O2 (racemic) [Trolox, (±)-6-hydroxy-2,5,7,8-tetramethylchromane-2-carboxylic acid, reference compound]
Relative signal reduction of the extinction value of the radical ABTS ([1]; 6.25 µM): 1.3 ± 0.4%
Relative signal reduction of the extinction value of the radical ABTS ([1]; 12.5 µM): 1.9 ± 0.4%
Relative signal reduction of the extinction value of the radical ABTS ([1]; 25 µM): 9.3 ± 0.5%
Relative signal reduction of the extinction value of the radical ABTS ([1]; 50 µM): 16.5 ± 0.4%
Relative signal reduction of the extinction value of the radical ABTS ([1]; 100 µM): 31.2 ± 0.4%
Relative signal reduction of the extinction value of the radical DPPH ([2]; 6.25 µM): 0.8 ± 0.3%
Relative signal reduction of the extinction value of the radical DPPH ([2]; 12.5 µM): 2.8 ± 0.3%
Relative signal reduction of the extinction value of the radical DPPH ([2]; 25 µM): 3.5 ± 0.4%
Relative signal reduction of the extinction value of the radical DPPH ([2]; 50 µM): 8.8 ± 0.6%
Relative signal reduction of the extinction value of the radical DPPH ([2]; 100 µM): 17.5 ± 1.5%

OC1(c2ccccc2)CSC(=S)N1Cc1ccncc1 (stereo not shown) [COB-187]
pIC50 (GSK-3β): 7.96
pIC50 (GSK-3α): 7.66

CN1CCSC1=S [N-methyl-2-thiazolidinethione]
toxicity [3]: low toxicity

C=CCN=C=S [allyl ITC, allyl isothiocyanate]
pIC50 (HepG2): 4.44
recovery of formed allyl ITC metabolites in urine [4]: 42–54%

CC(=O)OC[C@H]1O[C@@H]([S-])[C@H](OC(C)=O)[C@@H](OC(C)=O)[C@@H]1OC(C)=O.CCP(CC)CC.[Au+] [auranofin, 1-thio-β-D-glucopyranosatotriethyl phosphine gold-2,3,4,6-tetraacetate]
NQO1 activity [5]: 114 ± 7 mU/mg protein
NQO1 activity [6]: 153 ± 4 mU/mg protein

C[S+]([O-])CCCCN=C=S (stereo not shown) [sulforaphane]
stimulation in Nrf2 target gene expression [7]: no stimulation
pIC50 (HepG2): 4.89
cytotoxicity [8]: no significant cytotoxicity
concentrations inducing apoptosis and cytotoxicity (endothelial cells): 20 to 40 µM
bioavailability [9]: approximately 40%

From PMC9354954, “Assessing Bioavailability and Bioactivity of 4-Hydroxythiazolidine-2-Thiones, Newly Discovered Glucosinolate Degradation Products Formed During Domestic Boiling of Cabbage” (Frontiers in Nutrition, 2022)
